Assay results reported in ChEMBL document CHEMBL2169750, “Imidazo-benzothiazoles a potent microRNA modulator involved in cell proliferation” (Bioorg Med Chem Lett, 2012).
Calls of active or inactive are those of the source. No cut-off for these calls is given here.

Experiments:
[1] = tested on: Drosophila melanogaster; experiment: Toxicity in Drosophila melanogaster third instar larvae assessed as change in larvae development at 40 uM administered through feeding measured after 5 days; type: organism-based; settings: in vivo, po, 120 h
[2] = tested on: Drosophila melanogaster; experiment: Effect on Ago-1 expression in Drosophila melanogaster third instar larval wing imaginal disc at 10 to 100 uM administered through feeding measured after 5 days by semi quantitative RT-PCR analysis; type: functional, organism-based
[3] = tested on: Drosophila melanogaster; experiment: Downregulation of HDAC6 mRNA expression in Drosophila melanogaster third instar larval wing imaginal disc at 10 to 100 uM administered through feeding measured after 5 days by semi quantitative RT-PCR analysis; type: functional, organism-based
[4] = tested on: COLO 205; experiment: Induction of apoptosis in human COLO205 cells assessed as cellular blebbing at 4 uM after 24 hrs by Hoechst 33342-staining based confocal microscopy; type: functional, cell-based
[5] = tested on: Drosophila melanogaster; experiment: Downregulation of Dicer-1 expression in Drosophila melanogaster third instar larval wing imaginal disc at 10 to 100 uM administered through feeding measured after 5 days by semi quantitative RT-PCR analysis relative to control; type: functional
[6] = tested on: Drosophila melanogaster; experiment: Downregulation of Pasha expression in Drosophila melanogaster third instar larval wing imaginal disc at 10 to 100 uM administered through feeding measured after 5 days by semi quantitative RT-PCR analysis relative to control; type: functional
[7] = tested on: COLO 205; experiment: Induction of apoptosis in human COLO205 cells assessed as increase in caspase 3 expression at 4 uM after 24 hrs by fluorimetric assay relative to control; type: functional
[8] = tested on: Drosophila melanogaster; experiment: Downregulation of HDAC3 mRNA expression in Drosophila melanogaster third instar larval wing imaginal disc at 10 to 100 uM administered through feeding measured after 5 days by semi quantitative RT-PCR analysis; type: functional, organism-based
[9] = tested on: Drosophila melanogaster; experiment: Downregulation of miR-13a expression in Drosophila melanogaster third instar larval wing imaginal disc assessed as increase in EGFP expression at 40 uM administered through feeding measured after 5 days by confocal microscopy; type: functional, organism-based
[10] = tested on: Drosophila melanogaster; experiment: Downregulation of miR-14 expression in Drosophila melanogaster third instar larval wing imaginal disc assessed as increase in EGFP expression at 40 uM administered through feeding measured after 5 days by confocal microscopy; type: functional, organism-based
[11] = tested on: COLO 205; experiment: Cytotoxicity against human COLO205 cells assessed as reduction in cell viability at 0.5 to 4 uM after 48 hrs by MTT assay; type: functional, cell-based
[12] = tested on: COLO 205; experiment: Downregulation of HDAC-6 protein expression in human COLO205 cells at 4 uM after 24 hrs by Western blot analysis; type: functional, cell-based
[13] = tested on: Drosophila melanogaster; experiment: Downregulation of bantam microRNA expression in Drosophila melanogaster third instar larval wing imaginal disc assessed as increase in EGFP expression at 40 uM administered through feeding measured after 5 days by confocal microscopy; type: functional, organism-based
[14] = tested on: COLO 205; experiment: Cytotoxicity against human COLO205 cells assessed as decrease in AGO-2 expression at 4 uM after 24 hrs by Western blot analysis; type: functional, cell-based
[15] = tested on: COLO 205; experiment: Downregulation of HDAC-3 protein expression in human COLO205 cells at 4 uM after 24 hrs by Western blot analysis; type: functional, cell-based
[16] = tested on: Drosophila melanogaster; experiment: Toxicity in Drosophila melanogaster third instar larvae assessed as change in fecundity at 40 uM administered through feeding measured after 5 days; type: organism-based; settings: in vivo, po, 120 h
[17] = tested on: COLO 205; experiment: Cytotoxicity against human COLO205 cells assessed as decrease in miR-542-5p level by RT-PCR analysis; type: functional, cell-based
[18] = tested on: COLO 205; experiment: Induction of apoptosis in human COLO205 cells assessed as caspase 3 expression at 4 uM after 24 hrs by fluorimetric assay in presence of Z-DEVD-FMK; type: functional, cell-based
[19] = tested on: Drosophila melanogaster; experiment: Induction of apoptosis in Drosophila melanogaster third instar larval wing imaginal disc assessed as Dcp-1 activation at 10 to 100 uM administered through feeding measured after 5 days by semi quantitative RT-PCR analysis relative to control; type: functional
[20] = tested on: Drosophila melanogaster; experiment: Upregulation of Grim expression in Drosophila melanogaster third instar larval wing imaginal disc at 10 to 100 uM administered through feeding measured after 5 days by semi quantitative RT-PCR analysis relative to control; type: functional
[21] = tested on: COLO 205; experiment: Cell cycle arrest in human COLO205 cells assessed as accumulation at S phase at 4 uM after 24 hrs by propidium iodide staining-based flow cytometry (reference value: 7%); type: functional
[22] = tested on: COLO 205; experiment: Cell cycle arrest in human COLO205 cells assessed as accumulation at G2/M phase at 4 uM after 24 hrs by propidium iodide staining-based flow cytometry (reference value: 22%); type: functional
[23] = tested on: COLO 205; experiment: Cytotoxicity against human COLO205 cells assessed as increase in miR-145 level by RT-PCR analysis; type: functional, cell-based
[24] = tested on: Drosophila melanogaster; experiment: Downregulation of HDAC-1 mRNA expression in Drosophila melanogaster third instar larval wing imaginal disc at 10 to 100 uM administered through feeding measured after 5 days by semi quantitative RT-PCR analysis; type: functional, organism-based
[25] = tested on: Drosophila melanogaster; experiment: Upregulation of Hid expression in Drosophila melanogaster third instar larval wing imaginal disc at 10 to 100 uM administered through feeding measured after 5 days by semi quantitative RT-PCR analysis relative to control; type: functional
[26] = tested on: COLO 205; experiment: Induction of apoptosis in human COLO205 cells assessed as chromatin condensation at 4 uM after 24 hrs by Hoechst 33342-staining based confocal microscopy; type: functional, cell-based
[27] = tested on: COLO 205; experiment: Cytotoxicity against human COLO205 cells assessed as Dicer-1 expression at 4 uM after 24 hrs by Western blot analysis; type: functional, cell-based
[28] = tested on: COLO 205; experiment: Cytotoxicity against human COLO205 cells assessed as miR-450 expression by RT-PCR analysis; type: functional, cell-based
[29] = tested on: COLO 205; experiment: Induction of apoptosis in human COLO205 cells assessed as DNA fragmentation at 4 uM by tunel assay; type: functional, cell-based
[30] = tested on: Drosophila melanogaster; experiment: Downregulation of Sir2 mRNA expression in Drosophila melanogaster third instar larval wing imaginal disc at 10 to 100 uM administered through feeding measured after 5 days by semi quantitative RT-PCR analysis; type: functional, organism-based
[31] = tested on: Drosophila melanogaster; experiment: Downregulation of bantam microRNA expression in Drosophila melanogaster third instar larval wing imaginal disc assessed as increase in EGFP expression at 40 uM administered through feeding measured after 5 days by confocal microscopy relative to control; type: functional
[32] = tested on: COLO 205; experiment: Cell cycle arrest in human COLO205 cells assessed as accumulation at G1 phase at 4 uM after 24 hrs by propidium iodide staining-based flow cytometry (reference value: 71%); type: functional
[33] = tested on: COLO 205; experiment: Induction of apoptosis in human COLO205 cells assessed as caspase 9 expression at 4 uM after 24 hrs by fluorimetric assay in presence of Z-LEHD-FMK; type: functional, cell-based
[34] = tested on: Drosophila melanogaster; experiment: Downregulation of Drosha expression in Drosophila melanogaster third instar larval wing imaginal disc at 10 to 100 uM administered through feeding measured after 5 days by semi quantitative RT-PCR analysis relative to control; type: functional
[35] = tested on: Drosophila melanogaster; experiment: Upregulation of Reaper expression in Drosophila melanogaster third instar larval wing imaginal disc at 10 to 100 uM administered through feeding measured after 5 days by semi quantitative RT-PCR analysis relative to control; type: functional
[36] = tested on: Drosophila melanogaster; experiment: Downregulation of DIAP1 expression in Drosophila melanogaster third instar larval wing imaginal disc at 10 to 100 uM administered through feeding measured after 5 days by semi quantitative RT-PCR analysis; type: functional
[37] = tested on: COLO 205; experiment: Induction of apoptosis in human COLO205 cells assessed as increase in caspase 9 expression at 4 uM after 24 hrs by fluorimetric assay relative to control; type: functional
[38] = tested on: COLO 205; experiment: Cytotoxicity against human COLO205 cells assessed as decrease in AGO-1 expression at 4 uM after 24 hrs by Western blot analysis; type: functional, cell-based
[39] = tested on: Drosophila melanogaster; experiment: Induction of apoptosis in Drosophila melanogaster third instar larval wing imaginal disc assessed as Dronc activation at 10 to 100 uM administered through feeding measured after 5 days by semi quantitative RT-PCR analysis relative to control; type: functional
[40] = tested on: COLO 205; experiment: Induction of apoptosis in human COLO205 cells assessed as cellular shrinkage at 4 uM after 24 hrs by Hoechst 33342-staining based confocal microscopy; type: functional, cell-based
[41] = tested on: Drosophila melanogaster; experiment: Downregulation of miR-13a expression in Drosophila melanogaster third instar larval wing imaginal disc assessed as increase in EGFP expression at 40 uM administered through feeding measured after 5 days by confocal microscopy relative to control; type: functional
[42] = tested on: Drosophila melanogaster; experiment: Downregulation of HDAC4 mRNA expression in Drosophila melanogaster third instar larval wing imaginal disc at 10 to 100 uM administered through feeding measured after 5 days by semi quantitative RT-PCR analysis; type: functional, organism-based

## Clc1ccc(-c2nc3sc4ccccc4n3c2CN2CCN(c3ccccn3)CC2)cc1
[1]
  Activity: Non-toxic
[2]
  Activity: inactive
[3]
  Activity: Active
[4]
  Activity: Active
[5]
  fold change (FC): 3
[6]
  fold change (FC): 2
[7]
  fold change (FC): 3
[8]
  Activity: Active
[9]
  Activity: Active
[10]
  Activity: inactive
[11]
  Activity: Active
[12]
  Activity: Active
[13]
  Activity: Active
[14]
  Activity: Active
[15]
  Activity: Active
[16]
  Activity: Non-toxic
[17]
  Activity: Active
[18]
  Activity: inactive
[19]
  fold change (FC): 3
[20]
  fold change (FC): 3
[21]
  Activity: 5%
[22]
  Activity: 15%
[23]
  Activity: Active
[24]
  Activity: inactive
[25]
  fold change (FC): 4
[26]
  Activity: Active
[27]
  Activity: inactive
[28]
  Activity: inactive
[29]
  Activity: Active
[30]
  Activity: Active
[31]
  fold change (FC): 5
[32]
  Activity: 80%
[33]
  Activity: inactive
[34]
  fold change (FC): 4
[35]
  fold change (FC): 2.5
[36]
  fold change (FC): 5
[37]
  fold change (FC): 2.5
[38]
  Activity: Active
[39]
  fold change (FC): 3
[40]
  Activity: Active
[41]
  fold change (FC): 3
[42]
  Activity: Active

## Fc1ccc2c(c1)sc1nc(-c3ccccc3)c(CN3CCCC3)n12
[1]
  Activity: Non-toxic
[11]
  Activity: Active
[16]
  Activity: Non-toxic

## CCOc1ccc2c(c1)sc1nc(-c3ccc(Cl)cc3)c(CN3CCN(c4ccccn4)CC3)n12
[1]
  Activity: Non-toxic
[9]
  Activity: Active
[10]
  Activity: inactive
[11]
  Activity: Active
[13]
  Activity: Active
[16]
  Activity: Non-toxic

## CCN(CC)CCOc1cccc(-c2cn3c(n2)sc2ccccc23)c1.Cl.Cl
[12]
  Activity: Active
[15]
  Activity: Active
[21]
  Activity: 5%
[22]
  Activity: 73%
[32]
  Activity: 22%

## Clc1ccc(-c2nc3sc4ccccc4n3c2CN2CCCC2)cc1
[1]
  Activity: Non-toxic
[11]
  Activity: Active
[16]
  Activity: Non-toxic

## CCOc1ccc2c(c1)sc1nc(-c3ccccc3)c(CN3CCCC3)n12
[1]
  Activity: Non-toxic
[11]
  Activity: Active
[16]
  Activity: Non-toxic

## c1ccc(-c2nc3sc4ccccc4n3c2CN2CCCC2)cc1
[1]
  Activity: Non-toxic
[11]
  Activity: Active
[16]
  Activity: Non-toxic

## Cc1ccc2c(c1)sc1nc(-c3ccccc3)c(CN3CCCC3)n12
[1]
  Activity: Non-toxic
[11]
  Activity: Active
[16]
  Activity: Non-toxic
